Experimental findings from patent US9663473B2 (Actelion Pharmaceuticals Ltd, priority 2013, dated 2017) are described below.

The EC50 is the concentration at which the effect is half-maximal.

The assay has as its target T1, recombinant human ALX receptor (Homo sapiens, UniProt P25090).
T1 construct: expressed in transfected cells; host or cells: HEK293 (HEK293-hALXR-Gα16)
T1 sequence (P25090 1-351): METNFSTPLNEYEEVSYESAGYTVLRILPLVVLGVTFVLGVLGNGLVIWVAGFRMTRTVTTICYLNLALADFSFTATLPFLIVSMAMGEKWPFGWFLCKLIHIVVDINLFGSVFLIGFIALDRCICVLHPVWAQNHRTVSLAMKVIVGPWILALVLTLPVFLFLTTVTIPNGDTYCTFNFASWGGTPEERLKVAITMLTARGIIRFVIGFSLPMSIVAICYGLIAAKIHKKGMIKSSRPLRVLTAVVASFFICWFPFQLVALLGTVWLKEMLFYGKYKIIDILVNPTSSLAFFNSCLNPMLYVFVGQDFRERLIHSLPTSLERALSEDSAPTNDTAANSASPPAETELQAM
The assay can be described thus: Intracellular calcium measurements (FLIPR), ALX receptor agonistic activity. The note with it: HEK293-hALXR-Gα16 cells, Fluo-4 calcium signal, normalized to WKYMVm 10 nM. The class given is cell-based. In outline:
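HEK293 cells co-expressing human ALX receptor and Gα16 were loaded with 1 μM Fluo-4 AM for 60 min at 37° C., then exposed to serially diluted compounds on FLIPR Tetra. Peak fluorescence above baseline (ex 488/em 540 nm) was normalized to 10 nM WKYMVm as high control.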

On to `COc1ccc(C[C@@H](NC(=O)NC2CCN(C3CC3)CC2)c2nc3ccccc3[nH]2)cc1` [Example 71, (R)-1-(1-(1H-Benzo[d]imidazol-2-yl)-2-(4-methoxyphenyl)ethyl)-3-(1-cyclopropylpiperidin-4-yl)urea], for which the EC50 turned out to be 53 nM. Turning to `COc1ccc(C[C@@H](NC(=O)NCC2CCc3ccccc32)c2nc3ccccc3[nH]2)cc1` (stereo partly drawn) [Example 72, 1-((R)-1-(1H-Benzo[d]imidazol-2-yl)-2-(4-methoxyphenyl)ethyl)-3-((2,3-dihydro-1H-inden-1-yl)methyl)urea], the EC50 is 67 nM.

As to `CCOc1ccccc1CCNC(=O)N[C@H](Cc1ccc(OC)cc1)c1nc2ccccc2[nH]1` [Example 73, (R)-1-(1-(1H-Benzo[d]imidazol-2-yl)-2-(4-methoxyphenyl)ethyl)-3-(2-ethoxyphenethyl)urea], the EC50 worked out at 99 nM. For `COc1ccc(CC(NC(=O)NC2CCC(CO)CC2)c2nc3ccccc3[nH]2)cc1` (stereo not drawn) [Example 74, 1-(1-(1H-Benzo[d]imidazol-2-yl)-2-(4-methoxyphenyl)ethyl)-3-(4-(hydroxymethyl)cyclohexyl)urea], the half-maximal effective concentration (EC50) was determined as 13 nM. Consider `COc1ccc(C[C@@H](NC(=O)NC2CCCC2)c2nc3ccccc3[nH]2)cc1` [Example 75, (R)-1-(1-(1H-Benzo[d]imidazol-2-yl)-2-(4-methoxyphenyl)ethyl)-3-cyclopentylurea], for which the EC50 is 41 nM. Consider `COc1ccc(C[C@@H](NC(=O)N[C@H]2CC[C@H](O)CC2)c2nc3cc(C)ccc3[nH]2)cc1` [Example 83, 1-(trans-4-Hydroxycyclohexyl)-3-((R)-2-(4-methoxyphenyl)-1-(5-methyl-1H-benzo[d]imidazol-2-yl)ethyl)urea], for which the EC50 is 1.7 nM. For `COc1ccc(C[C@@H](NC(=O)N[C@H]2CC[C@H](O)CC2)c2nc3cc(OC)ccc3[nH]2)cc1` [Example 84, 1-(trans-4-Hydroxycyclohexyl)-3-((R)-1-(5-methoxy-1H-benzo[d]imidazol-2-yl)-2-(4-methoxyphenyl)ethyl)urea] the value was 11 nM; for `COc1ccc(C[C@@H](NC(=O)N[C@H]2CC[C@H](O)CC2)c2nc3cc(F)ccc3[nH]2)cc1` [Example 85, 1-((R)-1-(5-Fluoro-1H-benzo[d]imidazol-2-yl)-2-(4-methoxyphenyl)ethyl)-3-(trans-4-hydroxycyclohexyl)urea], 1.6 nM; for `COc1ccc(C[C@@H](NC(=O)N2CCCCC2)c2nc3ccccc3[nH]2)cc1` [Example 86, (R)—N-(1-(1H-Benzo[d]imidazol-2-yl)-2-(4-methoxyphenyl)ethyl)piperidine-1-carboxamide], 400 nM. In the case of `COc1ccc(C[C@@H](NC(=O)NC2CC(C)(C)NC(C)(C)C2)c2nc3ccccc3[nH]2)cc1` [Example 87, (R)-1-(1-(1H-Benzo[d]imidazol-2-yl)-2-(4-methoxyphenyl)ethyl)-3-(2,2,6,6-tetramethylpiperidin-4-yl)urea], the EC50 was found to be 14 nM. On to `COc1ccc(C[C@@H](NC(=O)NC2CCN(Cc3ccccc3)CC2)c2nc3ccccc3[nH]2)cc1` [Example 88, (R)-1-(1-(1H-Benzo[d]imidazol-2-yl)-2-(4-methoxyphenyl)ethyl)-3-(1-benzylpiperidin-4-yl)urea], for which the EC50 stood at 101 nM. For `COc1ccc(C[C@@H](NC(=O)NC2CN3CCC2CC3)c2nc3ccccc3[nH]2)cc1` (stereo partly drawn) [Example 89, 1-((R)-1-(1H-Benzo[d]imidazol-2-yl)-2-(4-methoxyphenyl)ethyl)-3-(quinuclidin-3-yl)urea], the EC50 was 15 nM. Consider `COc1ccc(C[C@@H](NC(=O)NC2CCN(C3CCCCC3)CC2)c2nc3ccccc3[nH]2)cc1` [Example 90, (R)-1-(1-(1H-Benzo[d]imidazol-2-yl)-2-(4-methoxyphenyl)ethyl)-3-(1-cyclohexylpiperidin-4-yl)urea], for which the 50% effective concentration (EC50) turned out to be 23 nM.

Regarding `COc1ccc(C[C@@H](NC(=O)N2CCCC2)c2nc3ccccc3[nH]2)cc1` [Example 91, (R)—N-(1-(1H-Benzo[d]imidazol-2-yl)-2-(4-methoxyphenyl)ethyl)pyrrolidine-1-carboxamide], the EC50 is 561 nM. Take `COc1ccc(C[C@@H](NC(=O)NCC2CCCC2)c2nc3ccccc3[nH]2)cc1` [Example 92, (R)-1-(1-(1H-Benzo[d]imidazol-2-yl)-2-(4-methoxyphenyl)ethyl)-3-(cyclopentylmethyl)urea]: the EC50 was 48 nM. Take `COc1ccc(C[C@@H](NC(=O)NC2CCN(C(=O)OC(C)(C)C)C2)c2nc3ccccc3[nH]2)cc1` (stereo partly drawn) [Example 93, tert-butyl 3-(3-((R)-1-(1H-Benzo[d]imidazol-2-yl)-2-(4-methoxyphenyl)ethyl)ureido)pyrrolidine-1-carboxylate]: the EC50 was found to be 16 nM.

On to `COc1ccc(C[C@@H](NC(=O)NCCO)c2nc3ccccc3[nH]2)cc1` [Example 94, (R)-1-(1-(1H-Benzo[d]imidazol-2-yl)-2-(4-methoxyphenyl)ethyl)-3-(2-hydroxyethyl)urea], for which the EC50 was determined as 570 nM. Consider `COc1ccc(C[C@@H](NC(=O)NCCCO)c2nc3ccccc3[nH]2)cc1` [Example 95, (R)-1-(1-(1H-Benzo[d]imidazol-2-yl)-2-(4-methoxyphenyl)ethyl)-3-(3-hydroxypropyl)urea], for which the EC50 came to 195 nM. The figure for `COc1ccc(C[C@@H](NC(=O)NCCCCO)c2nc3ccccc3[nH]2)cc1` [Example 96, (R)-1-(1-(1H-Benzo[d]imidazol-2-yl)-2-(4-methoxyphenyl)ethyl)-3-(4-hydroxybutyl)urea] is 152 nM.

Regarding `CCC(CC)NC(=O)N[C@H](Cc1ccc(OC)cc1)c1nc2ccccc2[nH]1` [Example 97, (R)-1-(1-(1H-Benzo[d]imidazol-2-yl)-2-(4-methoxyphenyl)ethyl)-3-(pentan-3-yl)urea], the EC50 amounted to 124 nM.

Take `COc1ccc(C[C@@H](NC(=O)NCC2CCCCC2)c2nc3ccccc3[nH]2)cc1` [Example 98, (R)-1-(1-(1H-Benzo[d]imidazol-2-yl)-2-(4-methoxyphenyl)ethyl)-3-(cyclohexylmethyl)urea]: the EC50 amounted to 432 nM.

In the case of `COc1ccc(C[C@@H](NC(=O)NC2CCCCCC2)c2nc3ccccc3[nH]2)cc1` [Example 99, (R)-1-(1-(1H-Benzo[d]imidazol-2-yl)-2-(4-methoxyphenyl)ethyl)-3-cycloheptylurea], the EC50 was 57 nM. `COc1ccc(C[C@@H](NC(=O)NC2CCNC2)c2nc3ccccc3[nH]2)cc1` (stereo partly drawn) [Example 100, 1-((R)-1-(1H-Benzo[d]imidazol-2-yl)-2-(4-methoxyphenyl)ethyl)-3-(pyrrolidin-3-yl)urea]: the EC50 worked out at 87 nM. Turning to `COc1ccc(C[C@@H](NC(=O)NC2CCN(C(C)C)CC2)c2nc3ccccc3[nH]2)cc1` [Example 101, (R)-1-(1-(1H-Benzo[d]imidazol-2-yl)-2-(4-methoxyphenyl)ethyl)-3-(1-isopropylpiperidin-4-yl)urea], the 50% effective concentration (EC50) is 113 nM.

Turning to `COc1ccc(C[C@@H](NC(=O)NC2CCN(Cc3ccccc3)C2)c2nc3ccccc3[nH]2)cc1` (stereo partly drawn) [Example 102, 1-((R)-1-(1H-Benzo[d]imidazol-2-yl)-2-(4-methoxyphenyl)ethyl)-3-(1-benzylpyrrolidin-3-yl)urea], the EC50 worked out at 376 nM. For `COc1ccc(C[C@@H](NC(=O)Nc2ccc(OC)cc2)c2nc3ccccc3[nH]2)cc1` [Example 104, (R)-1-(1-(1H-Benzo[d]imidazol-2-yl)-2-(4-methoxyphenyl)ethyl)-3-(4-methoxyphenyl)urea] the value was 257 nM; for `COc1ccc(C[C@@H](NC(=O)NC2CCN(CCc3ccccc3)CC2)c2nc3ccccc3[nH]2)cc1` [Example 105, (R)-1-(1-(1H-Benzo[d]imidazol-2-yl)-2-(4-methoxyphenyl)ethyl)-3-(1-phenethylpiperidin-4-yl)urea], 14 nM. For the compound `COc1ccc(CC(NC(=O)NC2CCC(CCO)CC2)c2nc3ccccc3[nH]2)cc1` (stereo not drawn) [Example 107, 1-(1-(1H-Benzo[d]imidazol-2-yl)-2-(4-methoxyphenyl)ethyl)-3-(4-(2-hydroxyethyl)cyclohexyl)urea], the EC50 was 6 nM. Turning to `COc1ccc(C[C@@H](NC(=O)NC2CCNCC2)c2nc3ccccc3[nH]2)cc1` [Example 108, (R)-1-(1-(1H-Benzo[d]imidazol-2-yl)-2-(4-methoxyphenyl)ethyl)-3-(piperidin-4-yl)urea], the EC50 is 52 nM.

Take `COc1ccc(C[C@@H](NC(=O)NC2(C)COC2)c2nc3ccccc3[nH]2)cc1` [Example 109, (R)-1-(1-(1H-Benzo[d]imidazol-2-yl)-2-(4-methoxyphenyl)ethyl)-3-(3-methyloxetan-3-yl)urea]: the EC50 stood at 634 nM. Turning to `COc1ccc(C[C@@H](NC(=O)NCCC(N)=O)c2nc3ccccc3[nH]2)cc1` [Example 110, (R)-3-(3-(1-(1H-Benzo[d]imidazol-2-yl)-2-(4-methoxyphenyl)ethyl)ureido)propanamide], the EC50 came out at 746 nM. For `COc1ccc(C[C@@H](NC(=O)N(CCO)C2CCCCC2)c2nc3ccccc3[nH]2)cc1` [Example 111, (R)-3-(1-(1H-Benzo[d]imidazol-2-yl)-2-(4-methoxyphenyl)ethyl)-1-cyclohexyl-1-(2-hydroxyethyl)urea] the value was 142 nM; for `COc1ccc(C[C@@H](NC(=O)N2CC3CCC2CN3C(=O)OC(C)(C)C)c2nc3ccccc3[nH]2)cc1` (stereo partly drawn) [Example 112, tert-Butyl 5-(((R)-1-(1H-benzo[d]imidazol-2-yl)-2-(4-methoxyphenyl)ethyl)carbamoyl)-2,5-diazabicyclo[2.2.2]octane-2-carboxylate], 109 nM.
